# Results taken from patent publication US20180002288A1, “USE OF PICOLINAMIDES AS FUNGICIDES” (DOW AGROSCIENCES LLC, priority 2014, published 2018).
# Like-named read-outs stand apart in the source and are kept apart here.
# What was measured:
# Zymoseptoria tritici = test: Leaf Blotch of Wheat fungicidal activity (SEPTTR); format: in vivo; settings: for pest or weed control at 121.5 g/ha: Low Volume Cereal Activity at 121.5 g/Ha; for pest or weed control at 100 ppm: wheat, high volume
# Puccinia triticina = test: Wheat Brown Rust fungicidal activity (PUCCRT); format: in vivo; settings: for pest or weed control at 121.5 g/ha: Low Volume Cereal Activity at 121.5 g/Ha; for pest or weed control at 100 ppm: wheat, high volume
# [1] = 24 h, 1 Day Protectant, read-out: SEPTTR 1DP (Wheat Leaf Blotch, 1 Day Protectant)
# [2] = 72 h, 3 Day Curative, read-out: SEPTTR 3DC (Wheat Leaf Blotch, 3 Day Curative)
# [3] = 24 h, 1 Day Protectant, read-out: PUCCRT 1DP (Wheat Brown Rust, 1 Day Protectant)
# [4] = 72 h, 3 Day Curative, read-out: PUCCRT 3DC (Wheat Brown Rust, 3 Day Curative)
# [5] = 24 h, 1 Day Protectant, read-out: SEPTTR 1DP % Control rating
# [6] = 72 h, 3 Day Curative, read-out: SEPTTR 3DC % Control rating
# [7] = 24 h, 1 Day Protectant, read-out: PUCCRT 1DP % Control rating
# [8] = 72 h, 3 Day Curative, read-out: PUCCRT 3DC % Control rating
Structure (SMILES),pest or weed control at 121.5 g/ha (Zymoseptoria tritici; [1]),pest or weed control at 121.5 g/ha (Zymoseptoria tritici; [2]),pest or weed control at 121.5 g/ha (Puccinia triticina; [3]),pest or weed control at 121.5 g/ha (Puccinia triticina; [4]),pest or weed control at 100 ppm (Zymoseptoria tritici; [5]),pest or weed control at 100 ppm (Zymoseptoria tritici; [6]),pest or weed control at 100 ppm (Puccinia triticina; [7]),pest or weed control at 100 ppm (Puccinia triticina; [8])
COc1ccnc(C(=O)N[C@@H](C)C(=O)O[C@@H](C)[C@H](Oc2ccccc2)c2cccc(-c3ccccc3)c2)c1OCOC(C)=O [Example 240],> 80%,> 80%,> 80%,< 80%,,,,
COc1ccnc(C(=O)N[C@@H](C)C(=O)O[C@@H](C)[C@H](Oc2ccccc2)c2ccc(F)cc2Cl)c1O [Example 163],,,,,> 80%,> 80%,> 80%,> 80%
COc1ccnc(C(=O)N[C@@H](C)C(=O)O[C@@H](C)[C@H](Oc2ccccc2)c2cccc3ccccc23)c1O [Example 165],,,,,> 80%,> 80%,> 80%,> 80%
COc1cc(F)ccc1[C@@H](Oc1ccc(C)cc1)[C@H](C)OC(=O)[C@H](C)NC(=O)c1nccc(OC)c1O [Example 173],,,,,> 80%,> 80%,> 80%,> 80%
CCOc1cc(F)ccc1[C@@H](Oc1ccccc1)[C@H](C)OC(=O)[C@H](C)NC(=O)c1nccc(OC)c1O [Example 168],,,,,> 80%,> 80%,> 80%,> 80%
COc1ccnc(C(=O)N[C@@H](C)C(=O)O[C@@H](C)[C@@H](Oc2ccc(Cl)cc2Cl)c2ccccc2)c1OC(C)=O [Example 214],> 80%,> 80%,> 80%,< 80%,,,,
COc1ccnc(C(=O)N[C@@H](Cc2ccccc2)C(=O)O[C@@H](C)[C@H](Oc2cccc(F)c2)c2ccccc2)c1OCOC(C)=O [Example 189],< 80%,< 0%,> 80%,< 80%,,,,
COc1ccnc(C(=O)N[C@@H](C)C(=O)O[C@@H](C)[C@H](Oc2ccccc2)c2ccc(F)cc2)c1O [Example 148],,,,,< 80%,> 80%,> 80%,< 80%
COc1ccnc(C(=O)N[C@@H](Cc2ccccc2)C(=O)O[C@@H](C)[C@H](Oc2cccc(F)c2)c2ccccc2)c1OC(C)=O [Example 190],< 80%,< 0%,> 80%,< 80%,,,,
COc1ccnc(C(=O)N[C@@H](C)C(=O)O[C@@H](C)[C@H](Oc2ccc(C)cc2)c2ccc(F)cc2)c1O [Example 152],,,,,> 80%,> 80%,> 80%,> 80%
CCCO[C@@H](c1ccccc1)[C@H](C)OC(=O)[C@H](C)NC(=O)c1nccc(OC)c1OC(C)=O [Example 227],< 80%,> 80%,> 80%,> 80%,,,,
COc1ccnc(C(=O)N[C@@H](C)C(=O)O[C@@H](C)[C@H](Oc2ccc(C)cc2)c2ccccc2)c1OC(C)=O [Example 246],> 80%,> 80%,> 80%,> 80%,,,,
COc1ccnc(C(=O)N[C@@H](C)C(=O)O[C@@H](C)[C@H](Oc2cccc(F)c2)c2ccccc2)c1O [Example 127],,,,,> 80%,> 80%,> 80%,> 80%
COc1ccnc(C(=O)N[C@@H](C)C(=O)O[C@@H](C)[C@H](OC)c2ccccc2)c1OC(C)=O [Example 231],< 0%,> 80%,< 0%,> 80%,,,,
COc1cc(F)ccc1[C@@H](OC(=O)C(C)(C)C)[C@H](C)OC(=O)[C@H](C)NC(=O)c1nccc(OC)c1O [Example 290],,,,,> 80%,> 80%,> 80%,> 80%
CC[C@H](NC(=O)c1nccc(OC)c1O)C(=O)O[C@@H](C)[C@H](Oc1cc(F)ccc1F)c1ccccc1 [Example 123],,,,,< 80%,< 80%,> 80%,< 80%
COc1ccnc(C(=O)N[C@@H](C)C(=O)O[C@@H](C)[C@H](Oc2ccc(Cl)cc2)c2ccccc2)c1OCOC(C)=O [Example 201],> 80%,> 80%,> 80%,> 80%,,,,

Structure (SMILES),pest or weed control at 121.5 g/ha (Zymoseptoria tritici; [1]),pest or weed control at 121.5 g/ha (Zymoseptoria tritici; [2]),pest or weed control at 121.5 g/ha (Puccinia triticina; [3]),pest or weed control at 121.5 g/ha (Puccinia triticina; [4]),pest or weed control at 100 ppm (Zymoseptoria tritici; [5]),pest or weed control at 100 ppm (Zymoseptoria tritici; [6]),pest or weed control at 100 ppm (Puccinia triticina; [7]),pest or weed control at 100 ppm (Puccinia triticina; [8])
CCCO[C@H](c1ccccc1)[C@H](C)OC(=O)[C@H](C)NC(=O)c1nccc(OC)c1O [Example 137],,,,,> 80%,> 80%,> 80%,> 80%
COc1ccnc(C(=O)N[C@@H](C)C(=O)O[C@@H](C)[C@@H](OC)c2ccccc2)c1OC(C)=O [Example 229],< 0%,< 80%,< 0%,> 80%,,,,
COc1ccnc(C(=O)N[C@H](C(=O)O[C@@H](C)[C@H](Oc2ccc(C(F)(F)F)cc2)c2ccccc2)C(C)C)c1OC(C)=O [Example 198],> 80%,< 0%,> 80%,< 80%,,,,
COc1ccnc(C(=O)N[C@@H](C)C(=O)O[C@@H](C)[C@H](Oc2ccccc2)c2ccccc2)c1O [Example 114],,,,,> 80%,> 80%,> 80%,> 80%
COc1ccnc(C(=O)N[C@@H](C)C(=O)O[C@@H](C)[C@H](Oc2ccc(F)cc2)c2ccccc2)c1O [Example 146],,,,,> 80%,> 80%,> 80%,> 80%
COc1ccnc(C(=O)N[C@@H](C)C(=O)O[C@@H](C)[C@H](Oc2ccc(C)cc2)c2ccc(C)cc2)c1OCOC(C)=O [Example 257],> 80%,> 80%,> 80%,> 80%,,,,
COc1ccnc(C(=O)N[C@@H](C)C(=O)O[C@@H](C)[C@H](Oc2cccc(F)c2)c2cccc(-c3ccccc3)c2)c1O [Example 133],,,,,< 0%,< 0%,< 80%,< 0%
CC[C@H](NC(=O)c1nccc(OC)c1OCOC(C)=O)C(=O)O[C@@H](C)[C@H](Oc1cc(F)ccc1F)c1ccccc1 [Example 193],< 80%,< 0%,> 80%,> 80%,,,,
COc1ccnc(C(=O)N[C@@H](C)C(=O)O[C@@H](C)[C@H](Oc2ccccc2)c2ccc(C)cc2)c1O [Example 154],,,,,> 80%,> 80%,> 80%,> 80%
COc1ccnc(C(=O)N[C@@H](C)C(=O)O[C@@H](C)[C@H](Oc2cc(F)cc(Cl)c2)c2ccccc2)c1O [Example 122],,,,,> 80%,> 80%,> 80%,> 80%
COc1ccnc(C(=O)N[C@@H](C)C(=O)O[C@@H](C)[C@H](Oc2ccc(F)cc2)c2ccc(C)cc2)c1OCOC(C)=O [Example 253],> 80%,> 80%,> 80%,> 80%,,,,
COc1cc(F)ccc1[C@@H](Oc1ccc(C)cc1Cl)[C@H](C)OC(=O)[C@H](C)NC(=O)c1nccc(OC)c1O [Example 169],,,,,> 80%,> 80%,> 80%,< 80%
COc1ccnc(C(=O)N[C@H](C(=O)O[C@@H](C)[C@H](Oc2ccc(C(F)(F)F)cc2)c2ccccc2)C(C)C)c1O [Example 126],,,,,< 0%,< 80%,< 80%,< 0%
COc1ccnc(C(=O)N[C@@H](C)C(=O)O[C@@H](C)[C@@H](Oc2ccccc2)c2ccccc2)c1OC(C)=O [Example 217],> 80%,> 80%,> 80%,< 80%,,,,
COc1ccnc(C(=O)N[C@H](C)C(=O)O[C@H](C)[C@@H](Oc2ccccc2)c2ccccc2)c1O [Example 116],,,,,< 0%,< 80%,< 0%,< 0%
COc1ccnc(C(=O)N[C@@H](C)C(=O)O[C@@H](C)[C@H](Oc2ccccc2)c2ccc(F)cc2C)c1O [Example 162],,,,,> 80%,> 80%,> 80%,> 80%
